Reference: EP4567040A1, “CRYSTAL FORM OF FUSED TRICYCLIC DERIVATIVE AND PREPARATION METHOD” (Jiangsu Hengrui Pharmaceuticals Co., Ltd., priority 2022, dated 2024)

Test system: DPX2 (HepG2 cells were stably transfected with the human PXR gene and the fluorescent reporter gene) cells
Experiment: Cell viability in the PXR induction assay (CellTiter-Fluor)
Type: cell-based
Procedure: • 1. The potential of the test compounds to induce the activity of drug metabolism enzymes through in vitro activation of PXR was evaluated. […] […] Experimental procedures • 3.1. Preparation for plating • 1) 50 mL of FBS was added to 450 mL of cell culture medium. • 2) DPX2 cells were cultured in a T-75 culture flask in a 37 °C, 5% CO2 incubator with 95% relative humidity. When covering 80-90% of the bottom of the culture flask, the cells were digested. • 3) The top layer of cells cultured in the T-75 culture flask was washed with 8 mL of PBS, and the PBS was pipetted off. The cells were digested with 3 mL of pancreatin at 37 °C for about 5 min or until they were floating in the pancreatin. 10 mL (excessive) of a serum-containing culture medium was added to neutralize the pancreatin. • 4) The cell suspension was transferred to a conical-bottomed centrifuge tube and centrifuged at 120 g for 10 min. The cells were suspended in the plating culture medium, and the concentration was adjusted to 4 × 10^5 cells/mL. The diluted cells were added to a 96-well cell culture plate at 100 µL/well. The culture plate was placed in an incubator and incubated at 37 °C for 24 h before the PXR activation experiment. • 3.2. […] […] The final concentration of DMSO was 0.1%. 1 µL of DMSO was added to a well containing 1 mL of pre-incubated culture medium as a solvent control. • 2) The cell culture plate was taken out of the incubator, and the culture medium was discarded. The test compounds and the positive compound were added to appropriate wells at 100 µL/well, and each group was tested in duplicate. The cell plate was placed in an incubator and incubated for 24 h. • 3.3. Quantification of PXR activation • 1) After […] of compound treatment, PXR activation was quantified for the culture. • 2) The CellTiter-Fluor™ cell viability assay kit and the One-Glo Luciferase reagent were equilibrated to room temperature. The GF-AFC (10 µL) substrate was added to Assay Buffer (10 mL) to form a 2× reagent, and the reagent was then diluted to 1× with 10 mL of PBS; the ONE-Glo substrate was added to the ONE-Glo Luciferase Assay buffer. • 3) The cell culture plate was taken out of the incubator, and the culture medium in each well was discarded. The plate was washed twice with PBS. The 1× CellTiter-Fluor™ reagent was added to a sterilized reagent reservoir, and 50 µL was transferred to each well using a multi-channel pipette. The plate was incubated at 37 °C for 30 min. • 4) The 96-well cell plate was taken out of the incubator, and the fluorescence in each well was measured using a microplate reader put in the fluorescence mode at an excitation wavelength of 400 nm and an emission wavelength of 505 nm. • 5) The ONE-Glo reagent was poured into a reagent reservoir, and then 50 µL was transferred to each well using a multi-channel pipette. The reagent was gently and well mixed, and the mixture was incubated and well mixed at room temperature for 5 min. After the incubation, the luminescence in each well was measured using a luminometer.
The calculation formula for cell viability: Percent cell viability (%) = I(sample)/(I(vehicle) × 100 [formula]
I(sample) represents the fluorescence intensity of the sample, and I(vehicle) represents the fluorescence intensity of 0.1% DMSO to cells.

**Q.** What does the source list for `CO[C@H]1/C=C/O[C@@]2(C)Oc3c(C)c(O)c4c(O)c(c(/C=N/N5CCN(C)CC5)c(O)c4c3C2=O)NC(=O)/C(C)=C\C=C\[C@H](C)[C@H](O)[C@@H](C)[C@@H](O)[C@@H](C)[C@H](OC(C)=O)[C@@H]1C` [Rifampicin, reference compound]?
**A.** Cell viability (%) (compound concentration 0.0195 µM): 103.39%; Cell viability (%) (compound concentration 20.0 µM): 93.07%
